Experimental data published in patent US20250296971A1, “GASTRIC INHIBITORY PEPTIDE RECEPTOR LIGANDS” (priority 2021, published 2025).
Where two headings read alike, the source gives them in different places. *1 amine or outer side, *2 acyl side, *3 side chain or, on linkers, in order; H or OH if unused. Where a SMILES comes first, the peptide text is derived from it. Bridges are numbered along the chain shown (N, C = ends). [ ]: non-standard residue; d: D form. The star is where a group is joined. X3 = O=C(O)CN1CCN(CC(=O)O)CCN(CC(=O)NCCCOCCOCCOCCCN*)CCN(CC(=O)O)CC1; NH(1-deoxy-D-glucityl) = OC[C@@H](O)[C@@H](O)[C@H](O)[C@@H](O)CN*; DOTA = O=C(O)CN1CCN(CC(=O)O)CCN(CC(=O)*)CCN(CC(=O)O)CC1; Trp(5-Br) = N[C@@H](Cc1c[nH]c2ccc(Br)cc12)C(=O)O; Trp(5-Cl) = N[C@@H](Cc1c[nH]c2ccc(Cl)cc12)C(=O)O; Pyridine(2,6-diCH2) = c1cc(C[*:1])nc(C[*:2])c1; X10 = O=C(CN(CC(=O)NC(CO)CO)CC(=O)*)NC(CO)CO; Pro(4R-NH2) = N[C@H]1CN[C@H](C(=O)O)C1; X4 = O=C(NCCN[*:2])c1cccc(C[*:1])c1; Glutaryl = O=C(CCCC(=O)[*:2])[*:1]; Hyp = O=C(O)[C@@H]1C[C@@H](O)CN1; X1 = O=C(CN1CCC(N[*:1])CC1)[*:2]; Suc = O=C(CCC(=O)[*:2])[*:1]; hSer = N[C@@H](CCO)C(=O)O; NHCH(CH2OH)2 = OCC(CO)N*; dDap = NC[C@@H](N)C(=O)O; Api = NC1(C(=O)O)CCNCC1; Thp = NC1(C(=O)O)CCOCC1; Aib = CC(C)(N)C(=O)O

What was measured:
[1] = target: T1, GIPR (CHO-K1-hGIPR cells) (Homo sapiens, UniProt P48546); test: FACS binding assay; settings: read-out: pIC50 Category (converted)
T1 construct: host or cells: CHO-K1
T1 sequence (P48546 22-466): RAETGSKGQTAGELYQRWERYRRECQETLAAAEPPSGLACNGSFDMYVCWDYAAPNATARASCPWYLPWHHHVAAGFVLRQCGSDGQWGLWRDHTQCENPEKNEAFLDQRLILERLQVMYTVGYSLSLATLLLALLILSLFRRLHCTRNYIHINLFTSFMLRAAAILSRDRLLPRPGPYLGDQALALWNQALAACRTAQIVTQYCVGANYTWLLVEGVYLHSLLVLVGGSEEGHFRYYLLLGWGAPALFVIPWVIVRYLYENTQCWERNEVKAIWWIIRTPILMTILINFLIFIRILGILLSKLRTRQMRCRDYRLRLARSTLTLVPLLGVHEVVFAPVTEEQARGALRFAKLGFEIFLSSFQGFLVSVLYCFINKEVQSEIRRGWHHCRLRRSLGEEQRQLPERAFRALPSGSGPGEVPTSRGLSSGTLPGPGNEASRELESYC
Procedure, shortened: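 Steps: detach CHO-K1-hGIPR cells (Accutase); wash in PBS/1% FCS; adjust to 500.000 cells per mL; wash ice-cold; incubate APC-streptavidin 1 μg/mL, 30 min on ice; wash twice; acquire on flow cytometer; fit MFI-concentration data with a four-parameter logistic model.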

[2] = target: T2, human GIP receptor (bioGIPR) (Homo sapiens, UniProt P48546); test: Surface plasmon resonance (SPR) based binding assay; settings: Single Cycle Kinetic mode, 25° C.; for t1/2 Category: SPR dissociation half-life; for Kd: SPR, 1:1 Langmuir binding model, read-out: pKD Category (converted)
T2 construct: Biotinylate extracellular of the human GIP receptor (bioGIPR, Proteros biostructures GmbH, lot #02/2b); purchased Proteros biostructures GmbH lot #02/2b
T2 sequence (P48546 22-138 limits assumed): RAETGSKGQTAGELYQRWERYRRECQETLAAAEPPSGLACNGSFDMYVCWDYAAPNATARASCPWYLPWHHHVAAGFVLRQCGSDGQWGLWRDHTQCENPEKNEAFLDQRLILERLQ
Procedure, shortened: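 Binding was measured at 25 °C by single-cycle kinetics against a reference flow cell, with blank-run and drift correction, after capturing biotinylated GIPR extracellular domain to ~3500 RU. Running buffer: HBST, 0.1% DMSO. A 1:1 Langmuir model gave kinetic rates, KD, t1/2 and pKD.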

[3] = competition with 20 nM GIP-057, 4° C., 1 hour
[4] = competition with 20 nM GIP-057, 4° C. for 1 hour

SMILES | IC50 [1, 3] | t1/2 Category [2] | Kd [2] | IC50 [1, 4]
CC[C@H](C)[C@@H]1NC(=O)[C@H](CC(C)C)NC(=O)C2(CCOCC2)NC(=O)[C@@H](NC(=O)[C@@H](CC(C)C)NC(=O)[C@H](CCC(=O)O)NC(=O)[C@@H]2C[C@@H](O)CN2C(=O)[C@H](Cc2c[nH]c3ccc(Cl)cc23)NC(=O)[C@H](Cc2c[nH]c3ccccc23)NC(=O)[C@H](CO)NC(C)=O)CSCc2cccc(n2)CSC[C@@H](C(N)=O)NC1=O [GIP-188, Ac-Ser-Trp-5Clw-Hyp-Glu-leu-[Cys(2Lut)-Thp-Leu-Ile-Cys]-NH2] (Ac-SW[Trp(5-Cl)][Hyp]E[dL]C[Thp]LIC-NH2; linker 7-11 via Pyridine(2,6-diCH2)) | < 10 nM | A (t1/2 values>15 min) | < 1 nM | –
CC[C@H](C)[C@@H]1NC(=O)[C@H](CC(C)C)NC(=O)C2(CCOCC2)NC(=O)[C@@H](NC(=O)[C@@H](CC(C)C)NC(=O)[C@H](CCC(=O)O)NC(=O)[C@@H]2C[C@@H](O)CN2C(=O)[C@H](Cc2c[nH]c3ccc(Br)cc23)NC(=O)[C@H](Cc2c[nH]c3ccccc23)NC(=O)[C@H](CCO)NC(C)=O)CSCc2cccc(n2)CSC[C@@H](C(N)=O)NC1=O [GIP-197, Ac-Hse-Trp-5Brw-Hyp-Glu-leu-[Cys(2Lut)-Thp-Leu-Ile-Cys]-NH2] (Ac-[hSer]W[Trp(5-Br)][Hyp]E[dL]C[Thp]LIC-NH2; linker 7-11 via Pyridine(2,6-diCH2)) | < 10 nM | A (t1/2 values>15 min) | < 1 nM | –
CC[C@H](C)[C@@H]1NC(=O)[C@H](CC(C)C)NC(=O)C(C)(C)NC(=O)[C@@H](NC(=O)[C@@H](CC(C)C)NC(=O)[C@H](CCC(=O)O)NC(=O)[C@@H]2CCCN2C(=O)[C@H](Cc2c[nH]c3ccc(Cl)cc23)NC(=O)[C@H](Cc2c[nH]c3ccccc23)NC(=O)[C@H](CC(=O)O)NC(=O)CCC(=O)NCCCOCCOCCOCCCNC(=O)CN2CCN(CC(=O)O)CCN(CC(=O)O)CCN(CC(=O)O)CC2)CSCc2cccc(c2)C(=O)NCCNC1=O [GIP-359, DOTA-Ttds-Asp-Trp-5Clw-Pro-Glu-leu-[Cys(3CbBn)-Aib-Leu-Ile-en]] ({X3-Suc}-DW[Trp(5-Cl)]PE[dL]C[Aib]LI; linker 7-C via X4) | – | C (t1/2 between 5 min and 2.1 min) | 1 to 7.94 nM | 10 to 79.4 nM
CC[C@H](C)[C@@H]1NC(=O)[C@H](CC(C)C)NC(=O)C2(CCN(C(=O)CN3CCN(CC(=O)O)CCN(CC(=O)O)CCN(CC(=O)O)CC3)CC2)NC(=O)[C@@H](NC(=O)[C@@H](CC(C)C)NC(=O)[C@H](CCC(=O)O)NC(=O)[C@@H]2C[C@@H](N)CN2C(=O)[C@H](Cc2c[nH]c3ccc(Cl)cc23)NC(=O)[C@H](Cc2c[nH]c3ccccc23)NC(=O)[C@H](CC(=O)O)NC(=O)CCCC(=O)NC[C@H](O)[C@@H](O)[C@H](O)[C@H](O)CO)CSCc2cccc(n2)CSC[C@@H](C(=O)NC2CCN(CC(=O)N[C@H](CCC(=O)NC(CO)CO)C(=O)NC(CO)CO)CC2)NC1=O [GIP-372, AGLU-Glutar-Asp-Trp-5Clw-Tap-Glu-leu-[Cys(2Lut)-Apc(DOTA)-Leu-Ile-Cys]-APAc-GLUSEROL] ({NH(1-deoxy-D-glucityl)-Glutaryl}-DW[Trp(5-Cl)][Pro(4R-NH2)]E[dL]C[Api](DOTA)LIC[X1][dE](NHCH(CH2OH)2)-{NHCH(CH2OH)2}; linker 7-11 via Pyridine(2,6-diCH2)) | – | A (t1/2 values>15 min) | < 1 nM | < 10 nM

Second part, the compound after the results:

IC50 [1, 3] | t1/2 Category [2] | Kd [2] | IC50 [1, 4] | SMILES
< 10 nM | A (t1/2 values>15 min) | < 1 nM | – | CC[C@H](C)[C@@H]1NC(=O)[C@H](CC(C)C)NC(=O)C2(CCOCC2)NC(=O)[C@@H](NC(=O)[C@@H](CC(C)C)NC(=O)[C@H](CCO)NC(=O)[C@@H]2C[C@@H](O)CN2C(=O)[C@H](Cc2c[nH]c3ccc(Cl)cc23)NC(=O)[C@H](Cc2c[nH]c3ccccc23)NC(=O)[C@H](CC(=O)O)NC(C)=O)CSCc2cccc(n2)CSC[C@@H](C(N)=O)NC1=O [GIP-194, Ac-Asp-Trp-5Clw-Hyp-Hse-leu-[Cys(2Lut)-Thp-Leu-Ile-Cys]-NH2] (Ac-DW[Trp(5-Cl)][Hyp][hSer][dL]C[Thp]LIC-NH2; linker 7-11 via Pyridine(2,6-diCH2))
– | A (t1/2 values>15 min) | < 1 nM | < 10 nM | CC[C@H](C)[C@@H]1NC(=O)[C@H](CC(C)C)NC(=O)C2(CCN(C(=O)CN3CCN(CC(=O)O)CCN(CC(=O)O)CCN(CC(=O)O)CC3)CC2)NC(=O)[C@@H](NC(=O)[C@@H](CC(C)C)NC(=O)[C@H](CCC(=O)O)NC(=O)[C@@H]2C[C@@H](N)CN2C(=O)[C@H](Cc2c[nH]c3ccc(Cl)cc23)NC(=O)[C@H](Cc2c[nH]c3ccccc23)NC(=O)[C@H](CC(=O)O)NC(=O)CN(CC(=O)NC(CO)CO)CC(=O)NC(CO)CO)CSCc2cccc(n2)CSC[C@@H](C(=O)NC2CCN(CC(=O)N[C@H](CNC(=O)CN(CC(=O)NC(CO)CO)CC(=O)NC(CO)CO)C(N)=O)CC2)NC1=O [GIP-373, NTASEROL-Asp-Trp-5Clw-Tap-Glu-leu-[Cys(2Lut)-Apc(DOTA)-Leu-Ile-Cys]-APAc-dap(NTASEROL)-NH2] (X10-DW[Trp(5-Cl)][Pro(4R-NH2)]E[dL]C[Api](DOTA)LIC[X1][dDap](X10)-NH2; linker 7-11 via Pyridine(2,6-diCH2))
